Laboratory results published in patent US10683267B1, “Antidiabetic compounds” (King Abdulaziz University, priority 2019, dated 2020).
Entries after “also recorded” stand apart in the source; their conditions may differ. Read-outs that look alike come from different tables or passages of the source. Marks after values point to notes of the source that are not given here.

Assays:
DPP-IV enzyme = molecular target: T1, DPP-IV enzyme (Homo sapiens, UniProt P27487); experiment: In vitro DPP-IV inhibition assay (Biovision kit, fluorescence); type: biochemical; details: for DPP-4 enzyme inhibition activity, in words: SAR discussion; for inhibition at 0.1 µM / % Inhibition @ 100 nM: compound at 100 nM; for % Inhibition (values marked *: inhibition at 1000 nM): compound at 1000 nM
T1 construct: purchased Biovision (Milpitas, Calif., USA)
Protocol: DPP-IV inhibition assay was conducted using a kit purchased from Biovision (Milpitas, Calif., USA). Briefly, DPP-IV enzyme was diluted with Tris buffer and pipetted 50 μl into glass mini-cells. […] Finally a volume of 25 μl of DPP-IV substrate was added into each tube. The fluorescence generated from hydrolysis of the substrate was read at Ex/Em=360/460 nm using Modulus® single tube multimode reader (Promega, USA). Baseline fluorescence was recorded before incubation (R1) and 20 min after incubation (R2).
The standard DPP-IV inhibitor drug sitagliptin employed as positive control. […] Sigmoidal concentration-response curves for DPP-IV % inhibition versus log concentration were plotted using Graphpad prism software, version 5.00 (GraphPad Software, Inc. La Jolla, Calif., USA).

diabetic mice [1] = experiment: Oral glucose tolerance test (OGTT) after single dose in diabetic mice; type: in vivo; details: for R.P. to Vildagliptin (Single Dose): Table 6, relative potency, B.G. = blood glucose; for AUC of blood glucose in OGTT (X, mean): glucose load 2 g/kg 2 h later, AUC 0-120 min
Protocol: (§1) The Biochemical and Research Ethical Committee of King Abulaziz University (Jeddah, Saudi Arabia), in accordance with the NIH guidelines, approved all procedures, and the animals received human care during the experimental period. Experiments were carried out using adult male Swiss albino mice (SWR), of 8-9 weeks age and 30-35 g weight. Animals were purchased from the animal house of the King Fahed Medical Research center (KFMRC), Jeddah, Saudi Arabia. Mice were kept at a constant temperature of 24-25° C. and were subjected to a controlled 12 h light-dark cycle; they had free access to water and pelleted diet ad libitum.
(§2) Nicotinamide (210 mg/kg b.w.), dissolved in saline, was injected intraperitoneally 15 min before the intraperitoneal injection of Streptozotocin (STZ) (Sigma, 180 mg/kg b.w.), which was freshly prepared in citrate buffer (pH 4.5). Control animals received both vehicles. During the experimental period, animals' food intake and body weight gain were monitored once a week.
Oral glucose tolerance tests were performed in 14 h overnight fasted diabetic mice that were pretreated with a single oral dose of the tested compounds. […] The drugs were suspended in carboxymethyl cellulose (CMC)-Na (1% in distilled water) and the dosing volume was adjusted at 10 mL/kg body weight of the mouse. Then an oral glucose load was administered (2 g/kg) 2 h after drug treatment. Blood glucose levels were determined using the Accu-check Go® (Roche Diagnostics, Michigan, USA). Samples were collected just before drug administration (fasting blood glucose), then at 2 h after drug treatment (immediately before glucose loading). Then blood sample collection was continued at 20, 40, 60 and 120 min intervals after glucose loading.
Animals were distributed between three categories of groups. Each group is composed of six animals (n=6) […] as follows:
Category 1: One group of animals were 14 h overnight-fasted normoglycemic mice and vehicle-treated (1% CMC-Na) at a dose of 10 ml/kg.
Category 2: Another group of animals was overnight fasted diabetic mice received the vehicle (1% CMC-Na) at a dosing volume of 10 ml/kg and served as a negative control.
Category 4: Animals of these groups were overnight fasted diabetic mice received the tested compounds at a dose of 50 mg/kg in 1% CMC (volume of 10 ml/kg).

diabetic mice [2] = experiment: Oral glucose tolerance test (OGTT) after multiple doses (6 days) in diabetic mice; type: in vivo; details: for R.P. to Vildagliptin (6 Days): Table 6, relative potency, B.G. = blood glucose; for AUC % change from diabetic control / AUC Δ from diabetic control / Relative potency to vildagliptin / AUC of blood glucose in OGTT (X, mean): 50 mg/kg oral for 6 days; for Relative potency to vildagliptin: OGTT AUC; for AUC of blood glucose in OGTT (X, mean): glucose load 2 g/kg 2 h after 6th dose, AUC 0-120 min
Protocol: as §1, §2
(§3) On the same groups that received the single dose treatment, the tested compounds were given daily by oral gavage for six consecutive days. On day 6, the overnight fasted diabetic mice were pretreated with the 6th oral dose of the tested compounds. Two hours later, an oral glucose was loaded (2 g/kg/10 ml b.w.). Blood glucose levels were determined using the Accu-check Go®. Samples were collected just before drug administration (Fasting Blood glucose), then 2 h after drug treatment and before glucose administration. Samples collection was continued at 20, 40, 60 and 120 min intervals after glucose loading.

diabetic mice [3] = experiment: Fasting blood glucose of diabetic mice treated daily for 6 consecutive days; type: in vivo; details: 50 mg/kg oral daily
Protocol: as §1, §2, §3
The oral glucose tolerance test (OGTT) was performed over six days on diabetic mice. The glucose level was monitored daily (Table 3). The results were analyzed for activities after a single dose (Table 4) and after the 6th dose of the drug (Table 5).

[4] = Table 2, head prints no unit, nM per Table 6, read-out: IC50
[5] = read-out: enzymatic inhibition value / inhibitory activity (IC50)

T1 sequence (P27487 whole entry, species assumed): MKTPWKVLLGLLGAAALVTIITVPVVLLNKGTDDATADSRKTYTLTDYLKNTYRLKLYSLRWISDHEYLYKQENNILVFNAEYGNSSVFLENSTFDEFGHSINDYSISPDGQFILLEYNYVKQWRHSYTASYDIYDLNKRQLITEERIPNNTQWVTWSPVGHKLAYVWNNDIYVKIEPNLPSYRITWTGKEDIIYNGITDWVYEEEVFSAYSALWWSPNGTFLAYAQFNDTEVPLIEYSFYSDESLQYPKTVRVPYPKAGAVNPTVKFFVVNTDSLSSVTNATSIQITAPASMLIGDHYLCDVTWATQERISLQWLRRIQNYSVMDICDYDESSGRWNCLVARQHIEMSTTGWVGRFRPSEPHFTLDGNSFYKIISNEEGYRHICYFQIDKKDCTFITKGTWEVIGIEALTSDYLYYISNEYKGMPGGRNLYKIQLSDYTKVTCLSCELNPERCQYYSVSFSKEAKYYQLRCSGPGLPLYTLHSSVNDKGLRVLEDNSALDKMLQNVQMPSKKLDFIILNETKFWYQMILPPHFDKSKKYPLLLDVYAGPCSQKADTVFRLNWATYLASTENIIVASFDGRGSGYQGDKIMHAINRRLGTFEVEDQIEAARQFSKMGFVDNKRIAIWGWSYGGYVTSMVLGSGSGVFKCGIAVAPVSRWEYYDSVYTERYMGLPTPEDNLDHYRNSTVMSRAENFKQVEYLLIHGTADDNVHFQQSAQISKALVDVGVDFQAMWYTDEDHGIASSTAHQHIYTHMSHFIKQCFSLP

SMILES | DPP-4 enzyme inhibition activity, in words (DPP-IV enzyme) | IC50 (DPP-IV enzyme; [4]) [nM] | IC50 (DPP-IV enzyme; Table 6, read-out: IC50) [nM] | R.P. to Vildagliptin (Single Dose) (diabetic mice [1]) | R.P. to Vildagliptin (6 Days) (diabetic mice [2]) | % Inhibition (values marked *: inhibition at 1000 nM) (DPP-IV enzyme) | % Inhibition @ 100 nM (DPP-IV enzyme) [%] | further results
N#Cc1cccc(NC(=O)CNC23CC4CC(CC(O)(C4)C2)C3)c1 [Compound 26, N-(3-cyanophenyl)-2-[(3-hydroxyadamantan-1-yl)amino]acetamide] | high affinity towards the enzyme | 0.58 | 0.58 | 0.32 | 1.3 | – | – | DPP-4 enzyme inhibition activity, in words (DPP-IV enzyme; listed as GLP-26): high level of potency both in vitro and in vivo; inhibition at 0.1 µM (DPP-IV enzyme): 83.1%; IC50 (DPP-IV enzyme; [5]): < 1 nM
O=C(CNC12CC3CC(CC(O)(C3)C1)C2)Nc1ccc(O)cc1 [Compound 60] | very weak activity | – | – | 0.67 | 0.67 | 20.11* % | – | –
O=C(CNC12CC3CC(CC(O)(C3)C1)C2)Nc1ccc(Cl)cc1 [Compound 43] | weak inhibitors at high concentration | 102 | > 100 | 0.26 | 1.39 | – | 51.64 | –
O=C(CNC12CC3CC(CC(O)(C3)C1)C2)NCc1ccc(F)cc1 [Compound 54] | – | 87.1 | 87.1 | Increased B.G. | Increased B.G. | – | 57.12 | –
COC(=O)c1ccccc1NC(=O)CNC12CC3CC(CC(O)(C3)C1)C2 [Compound 16] | weakened the enzyme inhibition activities | – | – | – | – | – | 45.61 | Fasting blood glucose level, Day 1 (diabetic mice [3]): 174.00 mg/dL; Fasting blood glucose level, Day 2 (diabetic mice [3]): 93.80 ± mg/dL; Fasting blood glucose level, Day 3 (diabetic mice [3]): 158.40 ± mg/dL; Fasting blood glucose level, Day 4 (diabetic mice [3]): 127.40 ± mg/dL; Fasting blood glucose level, Day 5 (diabetic mice [3]): 171.00 ± mg/dL; Fasting blood glucose level, Day 6 (diabetic mice [3]): 107.60 ± mg/dL; AUC % change from diabetic control (diabetic mice [1]; single oral dose 50 mg/kg): −39.51%; AUC Δ from diabetic control (diabetic mice [1]; single oral dose 50 mg/kg): 20179 mg·min/dL; Relative potency to vildagliptin (diabetic mice [1]; single oral dose 50 mg/kg, OGTT AUC): 1.19; AUC of blood glucose in OGTT (X, mean) (diabetic mice [1]; single oral dose 50 mg/kg): 30886* mg · dL^−1 · min; AUC % change from diabetic control (diabetic mice [2]): −52.53%; AUC Δ from diabetic control (diabetic mice [2]): 28183 mg·min/dL; Relative potency to vildagliptin (diabetic mice [2]): 1.45; AUC of blood glucose in OGTT (X, mean) (diabetic mice [2]): 24472* mg · dL^−1 · min
Cc1ccccc1NC(=O)CNC12CC3CC(CC(O)(C3)C1)C2 [Compound 2] | – | 10.1 | 10.1 | 0.42 | 1.2 | – | 86.82 | IC50 (DPP-IV enzyme; [5]): 10.3 nM
O=C(CNC12CC3CC(CC(O)(C3)C1)C2)NCc1ccccc1 [Compound 53] | – | 7.41 | – | – | – | – | – | inhibition at 0.1 µM (DPP-IV enzyme): 86.8%
O=C(CNC12CC3CC(CC(O)(C3)C1)C2)Nc1cccc(O)c1 [Compound 17] | very weak activity | 212 | > 100 | 0.26 | 1.42 | – | 44.44 | –
N#C[C@@H]1CCCN1C(=O)CNC12CC3CC(CC(O)(C3)C1)C2 [Vildagliptin, reference compound] | – | – | – | – | 1 | – | – | Fasting blood glucose level, Day 1 (diabetic mice [3]): 205.20 ± mg/dL; Fasting blood glucose level, Day 2 (diabetic mice [3]): 119.40 ± mg/dL; Fasting blood glucose level, Day 3 (diabetic mice [3]): 169.20 ± mg/dL; Fasting blood glucose level, Day 4 (diabetic mice [3]): 197.80 mg/dL; Fasting blood glucose level, Day 5 (diabetic mice [3]): 244.60 mg/dL; Fasting blood glucose level, Day 6 (diabetic mice [3]): 165.00 mg/dL
Cc1cccc(C)c1NC(=O)CNC12CC3CC(CC(C3)C1)C2 [Compound 120] | much weaker enzyme inhibition activities | – | – | – | – | 62.84* % | – | –
O=C(CNC12CC3CC(CC(O)(C3)C1)C2)Nc1cccc(C(F)(F)F)c1 [Compound 15] | did not show good activity; also recorded: generally weak | 116 | > 100 | 1.18 | 0.72 | 97.81* % | – | Fasting blood glucose level, Day 1 (diabetic mice [3]): 167.20 ± mg/dL; Fasting blood glucose level, Day 2 (diabetic mice [3]): 87.80 ± mg/dL; Fasting blood glucose level, Day 3 (diabetic mice [3]): 177.60 ± mg/dL; Fasting blood glucose level, Day 4 (diabetic mice [3]): 166.80 ± mg/dL; Fasting blood glucose level, Day 5 (diabetic mice [3]): 175.80 ± mg/dL; Fasting blood glucose level, Day 6 (diabetic mice [3]): 161.80 mg/dL; AUC % change from diabetic control (diabetic mice [1]; single oral dose 50 mg/kg): −39.13%; AUC Δ from diabetic control (diabetic mice [1]; single oral dose 50 mg/kg): 19985 mg·min/dL; AUC of blood glucose in OGTT (X, mean) (diabetic mice [1]; single oral dose 50 mg/kg): 31080* mg · dL^−1 · min; AUC % change from diabetic control (diabetic mice [2]): −26.07%; AUC Δ from diabetic control (diabetic mice [2]): 13729 mg·min/dL; Relative potency to vildagliptin (diabetic mice [2]): 0.72; AUC of blood glucose in OGTT (X, mean) (diabetic mice [2]): 38926* mg · dL^−1 · min
Cc1cccc(NC(=O)CNC23CC4CC(CC(O)(C4)C2)C3)c1 [Compound 30] | much weaker enzyme inhibition activities | – | – | – | – | 70.92* % | – | –
O=C(CNC12CC3CC(CC(O)(C3)C1)C2)Nc1ccccc1C(F)(F)F [Compound 14] | generally weak | 41.3 | 41.3 | 0.12 | Increased B.G. | – | 84.81 | –
Cc1ccc(NC(=O)CNC23CC4CC(CC(O)(C4)C2)C3)cc1 [Compound 3] | much weaker enzyme inhibition activities | – | – | – | – | – | 28.38 | –
O=C(CNC12CC3CC(CC(C3)C1)C2)Nc1cc(Cl)ccn1 [Compound 117] | high DPP-4 inhibition; also recorded: best functionality in enzyme inhibition activity | 5.42 | – | – | – | – | 83.14 | –
COc1ccccc1NC(=O)CNC12CC3CC(CC(O)(C3)C1)C2 [Compound 5] | weakened the enzyme inhibition activities | 94.1 | 94.1 | 0.66 | 0.26 | 93.48* % | – | –
O=C(CNC12CC3CC(CC(O)(C3)C1)C2)Nc1cccc(F)c1 [Compound 31] | generally weak | 62.3 | 62.3 | 0.37 | 0.85 | – | 56.23 | –
O=C(CNC12CC3CC(CC(O)(C3)C1)C2)NCCc1ccccc1 [Compound 59] | – | – | – | 0.52 | 0.83 | 67.04* % | – | –
O=C(CNC12CC3CC(CC(O)(C3)C1)C2)Nc1ccccc1F [Compound 27] | generally weak | – | – | – | – | 67.04* % | – | –
N#Cc1ccccc1NC(=O)CNC12CC3CC(CC(O)(C3)C1)C2 [Compound 19] | exception to nitrile performance | 267 | > 100 | 0.23 | 0.87 | 99.06* % | – | –
